# Test results taken from patent publication US20020137929A1, “1 - (3-heterocyclylphenyl) isothiourea, -isourea, -guanidine and -amidine herbicidal agents” (Intellectual Property Department, BASF Aktiengesellschaft, priority 1998, published 2002).
# Columns and labels:
# [1] = test system: ZEAMX (Corn, Field); test: Postemergence herbicidal evaluation; type: in vivo, Zea mays; settings: postemergence
# Outline: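 Rate range approx. 0.0156–0.500 kg/ha. Foliar application at 40 psi to ~2-week seedlings; surfactant 0.5% TWEEN 20 in 50/50 acetone/water. Evaluation 4–5 wk post-treatment by 0–9 visual injury score, means of replicate tests.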
# [2] = test system: AMBEL (Ragweed, Common); test: Preemergence herbicidal evaluation; type: in vivo, Ambrosia artemisifolia; settings: rated 4-5 weeks after treatment; for AMBEL rating: preemergence, 0-9 scale
# Outline: (§1)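 In this greenhouse assay, monocot and dicot seeds are planted in soil and treated prior to emergence with an aqueous acetone spray (about 0.0156-0.500 kg/ha). Plants are assessed visually against control on a 0-9 scale after 4-5 weeks.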
# [3] = test system: GLXMAW (Soybean, Williams); test: Preemergence herbicidal evaluation; type: in vivo, Glycine max, (L.) Merr. cv Williams; settings: rated 4-5 weeks after treatment; for GLXMAW rating: preemergence, 0-9 scale
# Outline: as §1
# [4] = test system: ABUTH (Velvetleaf); test: Preemergence herbicidal evaluation; type: in vivo, Abutilon theophrasti; settings: rated 4-5 weeks after treatment; for ABUTH rating: preemergence, 0-9 scale
# Excerpt: Results of herbicide evaluation are expressed on a rating scale (0-9). The scale is based upon a visual observation of plant stand, vigor, malformation, size, chlorosis and overall plant appearance as compared with a control.
# The preemergence herbicidal activity of the test compounds of the present invention is exemplified by the following tests in which the seeds of a variety of monocotyledonous and dicotyledonous plants are separately mixed with potting soil and planted on top of approximately one inch of soil in separate pint cups. After planting, the cups are sprayed with the selected aqueous acetone solution containing test compound in sufficient quantity to provide the equivalent of about 0.0156 to 0.500 kg per hectare of test compound per cup. The treated cups are then placed on greenhouse benches, watered and cared for in accordance with conventional greenhouse procedures. From four to five weeks after treatment, the tests are terminated and each cup is examined and rated according to the rating system provided in Example 37.
# The compounds evaluated are reported by compound number given in Example 37.
# [5] = rate 0.0156 kg/ha, rating scale 0-9
# [6] = rate 0.0313 kg/ha, rating scale 0-9
# [7] = rate 0.0625 kg/ha, rating scale 0-9
# [8] = rate 0.1250 kg/ha, rating scale 0-9
# [9] = rate 0.2500 kg/ha, rating scale 0-9
compound,measurement,setting,value
"C=CCOC(=O)CN1C(=O)CSC1=Nc1cc(-n2c(=O)cc(C(F)(F)F)n(C)c2=O)c(F)cc1Cl [Compound 106, Allyl 2-{{2-chloro-5-[3,6-dihydro-3-methyl-2,6-dioxo-4-(trifluoromethyl)-1(2H)-pyrimidinyl]-4-fluorophenyl}imino}-4-oxo-3-thiazolidineacetate]",herbicidal rating ZEAMX,[1]; rate 0.0158 kg/ha,5.0
same,herbicidal rating ZEAMX,[1]; rate 0.0315 kg/ha,6.5
same,herbicidal rating ZEAMX,[1]; rate 0.0630 kg/ha,7.0
same,AMBEL rating,[2]; 0.0313 kg/ha,1.5
same,AMBEL rating,[2]; 0.0625 kg/ha,5.0
same,AMBEL rating,[2]; 0.1250 kg/ha,7.0
same,AMBEL rating,[2]; 0.2500 kg/ha,9.0
same,Preemergence herbicidal rating AMBEL,[2]; rate 0.0156 kg/ha,1.5
same,GLXMAW rating,[3]; 0.0313 kg/ha,1.5
same,GLXMAW rating,[3]; 0.0625 kg/ha,2.0
same,GLXMAW rating,[3]; 0.1250 kg/ha,3.5
same,GLXMAW rating,[3]; 0.2500 kg/ha,5.0
same,Preemergence herbicidal rating GLXMAW,[3]; rate 0.0156 kg/ha,1.0
same,ABUTH rating,[4]; 0.0313 kg/ha,6.5
same,ABUTH rating,[4]; 0.0625 kg/ha,8.0
same,ABUTH rating,[4]; 0.1250 kg/ha,9.0
same,ABUTH rating,[4]; 0.2500 kg/ha,9.0
same,Preemergence herbicidal rating ABUTH,[4]; rate 0.0156 kg/ha,5.0
"Cn1c(C(F)(F)F)cc(=O)n(-c2cc(N=C3SCC(=O)N3CC(F)(F)F)c(Cl)cc2F)c1=O [Compound 163, 3-{4-Chloro-2-fluoro-5-{[4-oxo-3-(2,2,2-trifluoroethyl)-2-thiazolidinylidene]amino}phenyl}-1-methyl-6-(trifluoromethyl)-2,4(1H,3H)-pyrimidinedione]",herbicidal rating ZEAMX,[1]; rate 0.0156 kg/ha,5.0
same,herbicidal rating ZEAMX,[1]; rate 0.0313 kg/ha,5.5
same,herbicidal rating ZEAMX,[1]; rate 0.0625 kg/ha,5.5
same,Preemergence herbicidal rating AMBEL,[2]; 0.0156 kg/ha,0.0
same,Preemergence herbicidal rating AMBEL,[2]; 0.0313 kg/ha,3.0
same,Preemergence herbicidal rating AMBEL,[2]; 0.0625 kg/ha,9.0
same,Preemergence herbicidal rating AMBEL,[2]; 0.1250 kg/ha,9.0
same,Preemergence herbicidal rating AMBEL,[2]; 0.2500 kg/ha,9.0
same,Preemergence herbicidal rating GLXMAW,[3]; 0.0156 kg/ha,0.0
same,Preemergence herbicidal rating GLXMAW,[3]; 0.0313 kg/ha,2.0
same,Preemergence herbicidal rating GLXMAW,[3]; 0.0625 kg/ha,3.0
same,Preemergence herbicidal rating GLXMAW,[3]; 0.1250 kg/ha,3.0
same,Preemergence herbicidal rating GLXMAW,[3]; 0.2500 kg/ha,5.0
same,Preemergence herbicidal rating ABUTH,[4]; 0.0156 kg/ha,9.0
same,Preemergence herbicidal rating ABUTH,[4]; 0.0313 kg/ha,9.0
same,Preemergence herbicidal rating ABUTH,[4]; 0.0625 kg/ha,9.0
same,Preemergence herbicidal rating ABUTH,[4]; 0.1250 kg/ha,9.0
same,Preemergence herbicidal rating ABUTH,[4]; 0.2500 kg/ha,9.0
"C=CCN1C(=O)C(CC(=O)NO)SC1=Nc1cc(-n2c(=O)cc(C(F)(F)F)n(C)c2=O)c(F)cc1Cl (stereo not shown) [Compound 161, 3-Allyl-2-{{2-chloro-5-[3,6-dihydro-3-methyl-2,6-dioxo-4-(trifluoromethyl)-1(2H)-pyrimidinyl]-4-fluorophenyl}imino}-4-oxo-5-thiazolidineacetohydroxamic acid]",herbicidal rating ZEAMX,[1]; rate 0.0156 kg/ha,4.5
same,herbicidal rating ZEAMX,[1]; rate 0.0313 kg/ha,6.5
same,herbicidal rating ZEAMX,[1]; rate 0.0625 kg/ha,7.0
same,herbicidal rating ZEAMX,[1]; rate 0.1250 kg/ha,7.5
same,Preemergence herbicidal rating AMBEL,[2]; 0.0156 kg/ha,0.0
same,Preemergence herbicidal rating AMBEL,[2]; 0.0313 kg/ha,3.0
same,Preemergence herbicidal rating AMBEL,[2]; 0.0625 kg/ha,5.0
same,Preemergence herbicidal rating AMBEL,[2]; 0.1250 kg/ha,9.0
same,Preemergence herbicidal rating AMBEL,[2]; 0.2500 kg/ha,9.0
same,Preemergence herbicidal rating AMBEL,[2]; 0.5000 kg/ha,9.0
same,Preemergence herbicidal rating GLXMAW,[3]; 0.0156 kg/ha,0.0
same,Preemergence herbicidal rating GLXMAW,[3]; 0.0313 kg/ha,1.0
same,Preemergence herbicidal rating GLXMAW,[3]; 0.0625 kg/ha,1.0
same,Preemergence herbicidal rating GLXMAW,[3]; 0.1250 kg/ha,7.0
same,Preemergence herbicidal rating GLXMAW,[3]; 0.2500 kg/ha,9.0
same,Preemergence herbicidal rating GLXMAW,[3]; 0.5000 kg/ha,9.0
same,Preemergence herbicidal rating ABUTH,[4]; 0.0156 kg/ha,0.0
same,Preemergence herbicidal rating ABUTH,[4]; 0.0313 kg/ha,1.0
same,Preemergence herbicidal rating ABUTH,[4]; 0.0625 kg/ha,2.0
same,Preemergence herbicidal rating ABUTH,[4]; 0.1250 kg/ha,9.0
same,Preemergence herbicidal rating ABUTH,[4]; 0.2500 kg/ha,9.0
same,Preemergence herbicidal rating ABUTH,[4]; 0.5000 kg/ha,9.0
"Cn1c(C(F)(F)F)cc(=O)n(-c2cc(N=C3SCC(=O)N3Cc3cccc(C(F)(F)F)c3)c(Cl)cc2F)c1=O [Compound 142, 3-{4-Chloro-2-fluoro-5-{{3-[m-(trifluoromethyl)benzyl]-4-oxo-2-thiazolidinylidene}-amino}phenyl}-1-methyl-6-(trifluoromethyl)-2,4(1H,3H)-pyrimidinedione]",herbicidal rating ZEAMX,[1]; rate 0.0156 kg/ha,4.0
same,herbicidal rating ZEAMX,[1]; rate 0.0313 kg/ha,4.0
same,herbicidal rating ZEAMX,[1]; rate 0.0625 kg/ha,4.5
same,Preemergence herbicidal rating AMBEL,[2]; [5],0.0
same,Preemergence herbicidal rating AMBEL,[2]; [6],0.0
same,Preemergence herbicidal rating AMBEL,[2]; [7],4.0
same,Preemergence herbicidal rating AMBEL,[2]; [8],2.0
same,Preemergence herbicidal rating AMBEL,[2]; [9],1.0
same,Preemergence herbicidal rating GLXMAW,[3]; [5],1.0
same,Preemergence herbicidal rating GLXMAW,[3]; [6],0.0
same,Preemergence herbicidal rating GLXMAW,[3]; [7],0.0
same,Preemergence herbicidal rating GLXMAW,[3]; [8],0.0
same,Preemergence herbicidal rating GLXMAW,[3]; [9],1.0
same,Preemergence herbicidal rating ABUTH,[4]; [5],0.0
same,Preemergence herbicidal rating ABUTH,[4]; [6],1.0
same,Preemergence herbicidal rating ABUTH,[4]; [7],1.0
same,Preemergence herbicidal rating ABUTH,[4]; [8],4.0
same,Preemergence herbicidal rating ABUTH,[4]; [9],9.0
"Cn1c(C(F)(F)F)cc(=O)n(-c2cc(N=C3SCC(=O)N3C3CC3)c(Cl)cc2F)c1=O [Compound 152, 3-{4-Chloro-5-[(3-cyclopropyl-4-oxo-2-thiazolidinylidene)amino]-2-fluorophenyl}-1-methyl-6-(trifluoromethyl)-2,4(1H,3H)-pyrimidinedione]",herbicidal rating ZEAMX,[1]; rate 0.0156 kg/ha,4.0
same,herbicidal rating ZEAMX,[1]; rate 0.0313 kg/ha,5.0
same,herbicidal rating ZEAMX,[1]; rate 0.0625 kg/ha,6.5
same,Preemergence herbicidal rating AMBEL,[2]; [6],0.0
same,Preemergence herbicidal rating AMBEL,[2]; [7],0.0
same,Preemergence herbicidal rating AMBEL,[2]; [8],2.0
same,Preemergence herbicidal rating AMBEL,[2]; [9],6.0
same,Preemergence herbicidal rating GLXMAW,[3]; [6],0.0
same,Preemergence herbicidal rating GLXMAW,[3]; [7],2.0
same,Preemergence herbicidal rating GLXMAW,[3]; [8],2.0
same,Preemergence herbicidal rating GLXMAW,[3]; [9],2.0
same,Preemergence herbicidal rating ABUTH,[4]; [6],0.0
same,Preemergence herbicidal rating ABUTH,[4]; [7],0.0
same,Preemergence herbicidal rating ABUTH,[4]; [8],9.0
same,Preemergence herbicidal rating ABUTH,[4]; [9],9.0
"COc1ccc(CN2C(=O)CSC2=Nc2cc(-n3c(=O)cc(C(F)(F)F)n(C)c3=O)c(F)cc2Cl)c(OC)c1 [Compound 139, 3-{4-Chloro-5-{[3-(2,4-dimethoxybenzyl)-4-oxo-2-thiazolidinylidene]amino}-2-fluorophenyl}-1-methyl-6-(trifluoromethyl)-2,4(1H,3H)-pyrimidinedione]",herbicidal rating ZEAMX,[1]; rate 0.0156 kg/ha,4.5
same,herbicidal rating ZEAMX,[1]; rate 0.0313 kg/ha,4.5
same,herbicidal rating ZEAMX,[1]; rate 0.0625 kg/ha,5.0
same,Preemergence herbicidal rating AMBEL,[2]; [5],0.0
same,Preemergence herbicidal rating AMBEL,[2]; [6],1.0
same,Preemergence herbicidal rating AMBEL,[2]; [7],0.0
same,Preemergence herbicidal rating AMBEL,[2]; [8],3.0
same,Preemergence herbicidal rating AMBEL,[2]; [9],4.0
same,Preemergence herbicidal rating GLXMAW,[3]; [5],0.0
same,Preemergence herbicidal rating GLXMAW,[3]; [6],1.0
same,Preemergence herbicidal rating GLXMAW,[3]; [7],0.0
same,Preemergence herbicidal rating GLXMAW,[3]; [8],0.0
same,Preemergence herbicidal rating GLXMAW,[3]; [9],1.0
same,Preemergence herbicidal rating ABUTH,[4]; [5],0.0
same,Preemergence herbicidal rating ABUTH,[4]; [6],0.0
same,Preemergence herbicidal rating ABUTH,[4]; [7],0.0
same,Preemergence herbicidal rating ABUTH,[4]; [8],9.0
same,Preemergence herbicidal rating ABUTH,[4]; [9],9.0
CCCCOC(=O)CN1C(=O)CSC1=Nc1cc(-n2c(=O)cc(C(F)(F)F)n(C)c2=O)c(F)cc1Cl [Compound 111],herbicidal rating ZEAMX,[1]; rate 0.0158 kg/ha,6.5
same,herbicidal rating ZEAMX,[1]; rate 0.0315 kg/ha,6.5
same,herbicidal rating ZEAMX,[1]; rate 0.0630 kg/ha,7.0
same,Preemergence herbicidal rating AMBEL,[2]; rate 0.0156 kg/ha,0.0
same,Preemergence herbicidal rating AMBEL,[2]; rate 0.0313 kg/ha,0.0
same,Preemergence herbicidal rating AMBEL,[2]; rate 0.0625 kg/ha,0.0
same,Preemergence herbicidal rating AMBEL,[2]; rate 0.1250 kg/ha,6.0
same,Preemergence herbicidal rating AMBEL,[2]; rate 0.2500 kg/ha,7.0
same,Preemergence herbicidal rating GLXMAW,[3]; rate 0.0156 kg/ha,1.0
same,Preemergence herbicidal rating GLXMAW,[3]; rate 0.0313 kg/ha,1.0
same,Preemergence herbicidal rating GLXMAW,[3]; rate 0.0625 kg/ha,1.0
same,Preemergence herbicidal rating GLXMAW,[3]; rate 0.1250 kg/ha,3.0
same,Preemergence herbicidal rating GLXMAW,[3]; rate 0.2500 kg/ha,4.0
same,Preemergence herbicidal rating ABUTH,[4]; rate 0.0156 kg/ha,1.0
same,Preemergence herbicidal rating ABUTH,[4]; rate 0.0313 kg/ha,0.0
same,Preemergence herbicidal rating ABUTH,[4]; rate 0.0625 kg/ha,2.0
same,Preemergence herbicidal rating ABUTH,[4]; rate 0.1250 kg/ha,9.0
same,Preemergence herbicidal rating ABUTH,[4]; rate 0.2500 kg/ha,9.0
